We go through one molecule from ChEMBL document CHEMBL2396604, “Synthesis and structure activity relationship of tetrahydroisoquinoline-based potentiators of GluN2C and GluN2D containing N-methyl-D-aspartate receptors” (J Med Chem, 2013).

Some results are limits rather than exact numbers.

The inhibition is the share of the control response that was lost under treatment. A high value points to strong suppression.

The assay deals with Sigma non-opioid intracellular receptor 1 (Homo sapiens) (UniProt Q99720). Description: Inhibition of sigma1 receptor (unknown origin) at 5 uM by psychoactive drug screening programme assay.
Sequence of Sigma non-opioid intracellular receptor 1 (Homo sapiens) (Q99720 whole entry): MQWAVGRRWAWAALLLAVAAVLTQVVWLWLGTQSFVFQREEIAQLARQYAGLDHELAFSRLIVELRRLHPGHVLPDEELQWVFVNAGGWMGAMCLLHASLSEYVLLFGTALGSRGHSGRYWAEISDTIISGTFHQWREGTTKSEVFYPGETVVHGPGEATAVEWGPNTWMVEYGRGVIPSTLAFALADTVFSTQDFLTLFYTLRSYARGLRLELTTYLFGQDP

`COc1ccc(OCC2c3ccc(OCc4ccccc4)cc3CCN2C(=O)c2cccc(Br)c2)cc1` (stereo unspecified): the inhibition was below 50%.
